Test results from the supplement of paper PMC10307832.

Columns and labels:
Experiment in all cases: relative viability (nuclei count vs DMSO), 5 days (fraction); higher = more cells survive
[1] = compound: C1=CC2=C(C=C(C(=C2N=C1)O)N=NC3=CC4=C(C=C3)C=C(C=C4)S(=O)(=O)O)S(=O)(=O)O + Cc1cc(Nc2cc(N3CCN(C)CC3)nc(Sc3ccc(NC(=O)C4CC4)cc3)n2)n[nH]1 [Tozasertib] (partner 0.1 µM)
Outline: (§1)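 Medians of duplicate plates are given as relative viability. That measure is the nuclei count in treated wells divided by the count in vehicle wells. Counts were taken on 4× images of lung cancer cell lines in 1536-well plates, 5 days after pin-tool dosing the day after seeding with one drug alone or a fixed anchor-drug dose plus five library-drug doses (not always all listed) in √10 steps.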

AT-7519 + Linsitinib = compound: O=C(NC1CCNCC1)c1n[nH]cc1NC(=O)c1c(Cl)cccc1Cl [AT-7519] + C[C@]1(O)C[C@@H](c2nc(-c3ccc4ccc(-c5ccccc5)nc4c3)c3c(N)nccn32)C1 [Linsitinib] (partner 1 µM)
Outline: as §1

AT-7519 + Navitoclax = compound: O=C(NC1CCNCC1)c1n[nH]cc1NC(=O)c1c(Cl)cccc1Cl [AT-7519] + CC1(C)CCC(c2ccc(Cl)cc2)=C(CN2CCN(c3ccc(C(=O)NS(=O)(=O)c4ccc(N[C@H](CCN5CCOCC5)CSc5ccccc5)c(S(=O)(=O)C(F)(F)F)c4)cc3)CC2)C1 [Navitoclax] (partner 0.5 µM)
Outline: as §1

AT-7519 + Palbociclib = compound: O=C(NC1CCNCC1)c1n[nH]cc1NC(=O)c1c(Cl)cccc1Cl [AT-7519] + CC(=O)c1c(C)c2cnc(Nc3ccc(N4CCNCC4)cn3)nc2n(C2CCCC2)c1=O [Palbociclib] (partner 0.5 µM)
Outline: as §1

Cell Line	relative viability ([1]; first compound 0.08 µM)	relative viability ([1]; first compound 0.253 µM)	relative viability ([1]; first compound 0.8 µM)	relative viability ([1]; first compound 2.53 µM)	relative viability ([1]; first compound 8 µM)	relative viability (AT-7519 + Linsitinib; first compound 0.01 µM)	relative viability (AT-7519 + Linsitinib; first compound 0.03162 µM)	relative viability (AT-7519 + Linsitinib; first compound 0.3162 µM)	relative viability (AT-7519 + Linsitinib; first compound 1 µM)	relative viability (AT-7519 + Navitoclax; first compound 0.01 µM)	relative viability (AT-7519 + Navitoclax; first compound 0.03162 µM)	relative viability (AT-7519 + Navitoclax; first compound 0.3162 µM)	relative viability (AT-7519 + Navitoclax; first compound 1 µM)	relative viability (AT-7519 + Palbociclib; first compound 0.01 µM)	relative viability (AT-7519 + Palbociclib; first compound 0.03162 µM)	relative viability (AT-7519 + Palbociclib; first compound 0.3162 µM)	relative viability (AT-7519 + Palbociclib; first compound 1 µM)
NCI-H647	0.49	0.279	0.308	0.231	0.267	0.982	1.13	1.38	0.48	1.11	1.19	1.12	0.762	0.442	0.369	0.413	0.19
SK-LU-1	0.32	0.286	0.303	0.331	0.336	1.39	1.2	0.849	0.356	0.516	0.848	0.882	0.189	0.38	0.361	0.361	0.311
NCI-H2009	0.766	0.756	0.741	0.842	0.562	1.24	1.24	1.15	0.676	1.19	1.19	1.19	0.96	0.209	0.2	0.19	0.18
LOU-NH91	0.77	0.667	0.681	0.748	0.734	0.984	0.894	0.916	0.776	0.668	0.629	0.693	0.525	0.491	0.552	0.524	0.461
NCI-H2405	0.894	0.811	0.782	0.82	0.711	1.19	0.847	0.865	0.473	1.02	0.829	0.853	0.528	0.534	0.523	0.532	0.381
LCLC-97TM1	0.279	0.203	0.196	0.338	0.221	0.189	0.155	0.17	0.151	0.637	0.31	0.461	0.398	0.228	0.234	0.215	0.135
NCI-H727	0.535	0.653	0.87	0.767	0.441	0.287	0.309	0.163	0.167	0.374	0.449	0.245	0.121	0.621	0.698	0.658	0.427
H3255	0.59	0.705	0.655	0.604	0.864	0.964	0.888	0.909	0.788	0.463	0.491	0.647	0.431	0.376	0.309	0.328	0.308
SK-MES-1	1.01	0.888	0.804	0.924	0.935	1.08	0.958	1.08	0.953	1.18	1.08	1.25	1.15	0.304	0.31	0.295	0.204
NCI-H1437	0.421	0.392	0.407	0.408	0.287	1.14	1.17	0.81	0.344	1.03	1.08	1.1	0.455	0.282	0.319	0.295	0.251
LU99A	0.289	0.267	0.272	0.323	0.273	0.514	0.577	0.54	0.404	0.846	0.782	0.745	0.382	0.443	0.411	0.389	0.329
HCC-827	0.448	0.397	0.418	0.448	0.432	0.959	0.973	0.946	0.899	0.991	1.1	0.996	0.995	0.433	0.494	0.478	0.398
LK-2	0.174	0.189	0.18	0.178	0.148	0.514	0.448	0.368	0.255	0.76	0.75	0.77	0.745	0.783	0.968	0.675	0.547
HCC-366	0.152	0.0806	0.188	0.113	0.125	0.639	0.522	0.429	0.185	1.07	1.16	1.07	0.672	0.393	0.228	0.317	0.139
BEN	0.55	0.535	0.572	0.548	0.47	0.887	0.894	0.864	0.785	0.0644	0.0591	0.069	0.0528	0.5	0.515	0.455	0.461
NCI-H23	0.375	0.323	0.417	0.388	0.401	0.591	0.619	0.523	0.255	0.858	0.622	1.02	0.461	0.594	0.508	0.482	0.292
NCI-H1395	0.788	0.739	0.695	0.745	0.772	1.12	1.01	0.978	0.603	1.62	1.17	1.03	0.831	0.561	0.699	0.573	0.504
201T	1.03	0.901	0.987	0.967	0.934	0.933	1.04	1.06	1.05	1.19	1.17	1.27	1.25	0.339	0.34	0.32	0.363
NCI-H460	0.627	0.381	0.559	0.543	0.4	0.712	0.63	0.159	0.0184	0.965	1	0.932	0.0202	0.137	0.142	0.0995	0.019
